The subject of one assay is SD rat. The experiment in a line: 32P-phosphate oral loading test using SD rat (phosphorus absorption inhibitory effect). It counts as in vivo. Conditions: Rattus norvegicus, 0.5 h; SD male rats, oral dose 3 mg/kg; plasma radioactivity 30 minutes after 32P-phosphate solution, vs control group; read-out: Rate of inhibition of phosphate absorption. The method, then:
Phosphorus Absorption Inhibitory Effect of the Compound of the Present Invention in ^32P-Phosphate Oral Loading Test Using SD Rat
8-week-old SD male rats (Japan SLC, Inc.) were used as laboratory animals. Each test compound was suspended or dissolved at a concentration of 0.2 mg/mL or 0.6 mg/mL in Japanese Pharmacopoeia water for injection (manufactured by Hikari Pharmaceutical Co., Ltd.) and orally administered to each rat at a dose of 5 ml/kg body weight. Japanese Pharmacopoeia water for injection was administered at the same dose as above to a control group. 5 minutes after the administration of the test compound or water for injection, a phosphate solution (1.3 mM NaH2PO4) containing 32P-phosphate (PerkinElmer Inc.) was administered thereto at a dose of 5 ml/kg. 30 minutes after the administration of the phosphate solution, blood was collected from the tail vein, and the blood sample was immediately mixed with EDTA-2K (manufactured by Dojindo Laboratories). Then, the mixture was centrifuged at 3000 rpm at 4° C. for 10 minutes to recover plasma.
The radioactivity in 100 μL of the plasma was measured using a liquid scintillation counter and used as a phosphate absorption count. The radioactivity in the plasma of the control group was used as a control, and the rate of inhibition of phosphate absorption was determined according to the following expression: Rate of inhibition of phosphate absorption (%)=(1−Phosphate absorption count of the test compound administration group/Phosphate absorption count of the control group)×100 (2) Results

The target of the next assay is T1, human NHE3 (Homo sapiens, UniProt P48764).
T1 sequence (P48764 26-834): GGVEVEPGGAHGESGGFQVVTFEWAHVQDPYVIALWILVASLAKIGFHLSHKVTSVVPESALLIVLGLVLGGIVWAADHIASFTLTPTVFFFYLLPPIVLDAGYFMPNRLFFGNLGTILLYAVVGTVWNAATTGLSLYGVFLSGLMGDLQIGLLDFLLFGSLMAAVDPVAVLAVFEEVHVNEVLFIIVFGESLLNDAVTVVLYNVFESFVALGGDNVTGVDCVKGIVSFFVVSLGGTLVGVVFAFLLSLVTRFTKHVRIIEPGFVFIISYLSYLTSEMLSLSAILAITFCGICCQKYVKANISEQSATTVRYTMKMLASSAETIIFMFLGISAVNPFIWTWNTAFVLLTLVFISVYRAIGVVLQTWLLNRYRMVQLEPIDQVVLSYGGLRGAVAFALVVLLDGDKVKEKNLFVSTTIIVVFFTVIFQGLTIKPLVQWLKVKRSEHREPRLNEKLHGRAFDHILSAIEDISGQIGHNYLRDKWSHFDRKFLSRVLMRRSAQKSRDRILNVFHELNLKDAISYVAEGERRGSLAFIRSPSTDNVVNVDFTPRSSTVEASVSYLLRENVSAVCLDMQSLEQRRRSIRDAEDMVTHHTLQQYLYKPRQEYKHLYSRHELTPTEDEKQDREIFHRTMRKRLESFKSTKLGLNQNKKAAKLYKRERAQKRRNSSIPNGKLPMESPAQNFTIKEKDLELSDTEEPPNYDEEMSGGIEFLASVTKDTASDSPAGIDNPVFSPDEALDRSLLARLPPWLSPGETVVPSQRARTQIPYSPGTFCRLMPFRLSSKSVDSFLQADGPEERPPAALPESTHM
Nature of the assay: NHE3 inhibition test (recovery of intracellular pH in cell line stably expressing human NHE3). It is filed as cell-based. Conditions: OK cells deficient in endogenous NHE stably expressing human NHE3; BCECF fluorescence, initial rate of pH recovery; read-out: human NHE3 inhibitory activity IC50. A digest of the protocol:
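IC50 is the concentration halving the initial rate of Na-triggered intracellular pH recovery, tracked by BCECF fluorescence, in NH4Cl-acidified cells. Cells: NHE-deficient OK line stably transfected with human NHE3; compound added in Na-free pH 7.4 buffer.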

pIC50: −log10 of the molar value. Counter-ions that a name gives are not always drawn.

As a reminder, the pIC50 is the negative decadic logarithm of the IC50, by convention in mol/L. Take `CN1Cc2c(Cl)cc(Cl)cc2[C@@H](c2cccc(-c3cn(CCOCCOCCOCCOCCOCCNC(=O)[C@H](O)[C@@H](O)[C@@H](O)[C@H](O)C(=O)NCCOCCOCCOCCOCCOCCn4cc(-c5cccc([C@@H]6CN(C)Cc7c(Cl)cc(Cl)cc76)c5)nn4)nn3)c2)C1` [Example 6-12, (2R,3S,4R,5S)—N-[17-(4-{3-[(4R)-6,8-Dichloro-2-methyl-1,2,3,4-tetrahydroisoquinolin-4-yl]phenyl}-1H-1,2,3-triazol-1-yl)-3,6,9,12,15-pentaoxaheptadec-1-yl]-N′-[17-(4-{3-[(4S)-6,8-dichloro-2-methyl-1,2,3,4-tetrahydroisoquinolin-4-yl]phenyl}-1H-1,2,3-triazol-1-yl)-3,6,9,12,15-pentaoxaheptadec-1-yl]2,3,4,5-tetrahydroxyhexanediamide hydrochloride]: in the assay with SD rat, the inhibition in vivo at 3 mg/kg came to 37%. The pIC50 at human NHE3 is 8.64.

For the molecule `CN1Cc2c(Cl)cc(Cl)cc2[C@H](c2cccc(-c3cc(NCCOCCOCCNC(=O)NCCCCNC(=O)NCCOCCOCCNc4cc(-c5cccc([C@@H]6CN(C)Cc7c(Cl)cc(Cl)cc76)c5)ncn4)ncn3)c2)C1` [Example 7-2, 1,1′-Butane-1,4-diylbis {3-[2-(2-{2-[(6-{3-[(4S)-6,8-dichloro-2-methyl-1,2,3,4-tetrahydroisoquinolin-4-yl]phenyl}pyrimidin-4-yl)amino]ethoxy}ethoxy)ethyl]urea} tetrahydrochloride], the inhibition in vivo at 3 mg/kg with SD rat turned out to be 23%. For the same molecule, at human NHE3, the pIC50 is 8.03.

With `CN1Cc2c(Cl)cc(Cl)cc2[C@H](c2cccc(-c3ccnc(NCCOCCOCCNC(=O)NCCCCNC(=O)NCCOCCOCCNc4cc(-c5cccc([C@@H]6CN(C)Cc7c(Cl)cc(Cl)cc76)c5)ccn4)c3)c2)C1` [Example 7-4, 1,1′-Butane-1,4-diylbis {3-[2-(2-{2-[(4-{3-[(4S)-6,8-dichloro-2-methyl-1,2,3,4-tetrahydroisoquinolin-4-yl]phenyl}pyridin-2-yl)amino]ethoxy}ethoxy)ethyl]urea}pentahydrochloride], the inhibition in vivo at 3 mg/kg with SD rat came out at 27%. Also, the pIC50 at human NHE3 was 8.08.

Take `CN1Cc2c(Cl)cc(Cl)cc2[C@H](c2cccc(-c3cnn(CCOCCOCCNC(=O)NCCCCNC(=O)NCCOCCOCCn4cc(-c5cccc([C@@H]6CN(C)Cc7c(Cl)cc(Cl)cc76)c5)cn4)c3)c2)C1` [Example 7-5, 1,1′-Butane-1,4-diylbis[3-(2-{2-[2-(4-{3-[(4S)-6,8-dichloro-2-methyl-1,2,3,4-tetrahydroisoquinolin-4-yl]phenyl}-1H-pyrazol-1-yl)ethoxy]ethoxy}ethyl)urea]diformate]: in the assay on SD rat, the inhibition in vivo at 3 mg/kg came out at 23%. The pIC50 on human NHE3 is 8.35.

For the molecule `CN1Cc2c(Cl)cc(Cl)cc2[C@H](c2cccc(-c3cc(NCCOCCOCCNC(=O)NCCCCNC(=O)NCCOCCOCCNc4cnnc(-c5cccc([C@@H]6CN(C)Cc7c(Cl)cc(Cl)cc76)c5)c4)cnn3)c2)C1` [Example 7-6, 1,1′-Butane-1,4-diylbis {3-[2-(2-{2-[(6-{3-[(4S)-6,8-dichloro-2-methyl-1,2,3,4-tetrahydroisoquinolin-4-yl]phenyl}pyridazin-4-yl)amino]ethoxy}ethoxy)ethyl]urea}pentahydrochloride], the inhibition in vivo at 3 mg/kg in the assay on SD rat was found to be 24%. Also, the pIC50 at human NHE3 is 8.00.

For `CN1Cc2c(Cl)cc(Cl)cc2[C@H](c2cccc(-c3nnn(CCOCCOCCNC(=O)NCCCCNC(=O)NCCOCCOCCn4nnc(-c5cccc([C@@H]6CN(C)Cc7c(Cl)cc(Cl)cc76)c5)n4)n3)c2)C1` [Example 7-9, 1,1′-Butane-1,4-diylbis[3-(2-{2-[2-(5-{3-[(4S)-6,8-dichloro-2-methyl-1,2,3,4-tetrahydroisoquinolin-4-yl]phenyl}-2H-tetrazol-2-yl)ethoxy]ethoxy}ethyl)urea]hydrochloride], the inhibition in vivo at 3 mg/kg in the assay on SD rat stood at 22%. Besides, the pIC50 at human NHE3 is 8.14.

For the molecule `CN1Cc2c(Cl)cc(Cl)cc2[C@H](c2cccc(-c3nnn(CCOCCOCCNC(=O)Nc4ccc(NC(=O)NCCOCCOCCn5nnc(-c6cccc([C@@H]7CN(C)Cc8c(Cl)cc(Cl)cc87)c6)n5)cc4)n3)c2)C1` [Example 7-10, 1,1′-Benzene-1,4-diylbis[3-(2-{2-[2-(5-{3-[(4S)-6,8-dichloro-2-methyl-1,2,3,4-tetrahydroisoquinolin-4-yl]phenyl}-2H-tetrazol-2-yl)ethoxy]ethoxy}ethyl)urea]hydrochloride], the inhibition in vivo at 3 mg/kg with SD rat came out at 35%. Also, at human NHE3, the pIC50 was 7.86.

Take `CN1Cc2c(Cl)cc(Cl)cc2[C@H](c2cccc(-c3cn(CCOCCOCCNC(=O)NCCCCNC(=O)NCCOCCOCCn4cnc(-c5cccc([C@@H]6CN(C)Cc7c(Cl)cc(Cl)cc76)c5)c4)cn3)c2)C1` [Example 7-15, 1,1′-Butane-1,4-diylbis[3-(2-{2-[2-(4-{3-[(4S)-6,8-dichloro-2-methyl-1,2,3,4-tetrahydroisoquinolin-4-yl]phenyl}-1H-imidazol-1-yl)ethoxy]ethoxy}ethyl)urea]hydrochloride]: in the assay with SD rat, the inhibition in vivo at 3 mg/kg was found to be 36%. Also, the pIC50 on human NHE3 is 8.09.

As for `CN1Cc2c(Cl)cc(Cl)cc2[C@H](c2cccc(-c3cc(NCCOCCOCCOCCNC(=O)Nc4ccc(NC(=O)NCCOCCOCCOCCNc5cc(-c6cccc([C@@H]7CN(C)Cc8c(Cl)cc(Cl)cc87)c6)ncn5)cc4)ncn3)c2)C1` [Example 7-16, 1,1′-Benzene-1,4-diylbis(3-{2-[2-(2-{2-[(6-{3-[(4S)-6,8-dichloro-2-methyl-1,2,3,4-tetrahydroisoquinolin-4-yl]phenyl}pyrimidin-4-yl)amino]ethoxy}ethoxy)ethoxy]ethyl}urea) hydrochloride], in the assay with SD rat, the inhibition in vivo at 3 mg/kg was 34%. In addition, on human NHE3, the pIC50 was 7.78.

Turning to `CN1Cc2c(Cl)cc(Cl)cc2[C@H](c2cccc(-c3ccc(C(=O)NCCOCCOCCNC(=O)NCCCCNC(=O)NCCOCCOCCNC(=O)c4ccc(-c5cccc([C@@H]6CN(C)Cc7c(Cl)cc(Cl)cc76)c5)cn4)nc3)c2)C1` [Example 7-18, N,N′-(10,17-Dioxo-3,6,21,24-tetraoxa-9,11,16,18-tetraazahexacosane-1,26-diyl)bis(5-{3-[(4S)-6,8-dichloro-2-methyl-1,2,3,4-tetrahydroisoquinolin-4-yl]phenyl}pyridine-2-carboxamide) hydrochloride], the inhibition in vivo at 3 mg/kg in the assay with SD rat was 49%. Moreover, the pIC50 on human NHE3 is 8.25.

Consider `CN1Cc2c(Cl)cc(Cl)cc2[C@H](c2cccc(-c3cc(NCCOCCOCCOCCNC(=O)NCCCCNC(=O)NCCOCCOCCOCCNc4cnnc(-c5cccc([C@@H]6CN(C)Cc7c(Cl)cc(Cl)cc76)c5)c4)cnn3)c2)C1` [Example 7-19, 1,1′-Butane-1,4-diylbis(3-{2-[2-(2-{2-[(6-{3-[(4S)-6,8-dichloro-2-methyl-1,2,3,4-tetrahydroisoquinolin-4-yl]phenyl}pyridazin-4-yl)amino]ethoxy}ethoxy)ethoxy]ethyl}urea) hexahydrochloride], for which, in the assay with SD rat, the inhibition in vivo at 3 mg/kg was determined as 19%. Further, the pIC50 on human NHE3 was 7.75.

As for `CN1Cc2c(Cl)cc(Cl)cc2[C@H](c2cccc(-c3cn(CCOCCOCCOCCNC(=O)Nc4ccc(NC(=O)NCCOCCOCCOCCn5cc(-c6cccc([C@@H]7CN(C)Cc8c(Cl)cc(Cl)cc87)c6)nn5)cc4)nn3)c2)C1` [Example 7-24, 1,1′-Benzene-1,4-diylbis{3-[2-(2-{2-[2-(4-{3-[(4S)-6,8-dichloro-2-methyl-1,2,3,4-tetrahydroisoquinolin-4-yl]phenyl}-1H-1,2,3-triazol-1-yl)ethoxy]ethoxy}ethoxy)ethyl]urea}hydrochloride], the inhibition in vivo at 3 mg/kg in the assay with SD rat is 31%. Moreover, the pIC50 at human NHE3 was 8.25.

The values are drawn from US9932331B2, “Phenyl tetrahydroisoquinoline compound substituted with heteroaryl” (TAISHO PHARMACEUTICAL CO., LTD, priority 2014, dated 2018).
